From US20080032953A1, “Method For Inhibiting Prebiotic Effect Of Food Proteins” (Royal Canin SA,, priority 2004, published 2008)

Experiments:
aerobic microflora = experiment: Growth of cat oral bacterial microflora in artificial saliva with protein, with or without phosphate: aerobic count; format: cell-based; conditions: MP9007 1%
Method: (§1) For all the experiments, the bacterial microflora of the oral cavity was removed, kept in a conservation medium, and then cultured in artificial saliva according to the following protocol:
(§2) Two male cats of “European” race, weighing approximately 5.50 kg, were anesthetized with 0.3 ml of a solution of medetomidine at 0.085 g/100 ml (Domitor, ND) and 0.26 ml of a solution of ketamine at […] (Imalgene 1000, ND).
(§3) In each animal thus immobilized, the saliva was sterilely suctioned with a pipette and the base of the teeth, the gums and the gum pockets were scraped with the back of a sterile scalpel.
(§4) All the samples were transferred and well-diluted in 100 ml of a sterile conservation medium (thiocolate resazurin medium from Biokar supplemented with 25% of glycerol). The conservation medium containing the samples was transferred into tubes with microbeads (Cryobilles, ND from AES). These tubes were then incubated for 6 hours in an incubator at 37° C., in a jar under CO2, before being frozen for subsequent use.
(§5) When subsequently used, each tube is thawed at ambient temperature and then incubated for 12 hours at 37° C., in a jar under CO2. The aerobic and anaerobic bacteria are counted according to the methods described hereinafter. The content of each tube is subsequently diluted with the sterile conservation medium so as to have an inoculum of 5000 (3.70 log10) revivable microorganisms in 0.2 ml.
The aerobic microflora is cultured and then counted on a trypticase soy medium (Biokar) incubated at 37° C. for 48 hours.
(§6) The basic artificial saliva is prepared according to table 31 on page 244 of the manual Biological Handbooks—Metabolism, compiled and edited by Philip L. Altman and Dorothy S. Dittmer, published by Federation of American Societies for Experimental Biology, 1968.
(§7) This basic saliva is supplemented with L-cysteine at a rate of 0.5 g/liter in order to lower its redox potential so as to be able to grow therein both the aerobic bacterial microflora and the anaerobic bacterial microflora. The whole will subsequently be referred to as “artificial saliva”.
(§8) The artificial saliva is dispensed into test tubes at a rate of 20 ml per tube. Each tube is supplemented or not supplemented with the protein, in the presence or absence of the phosphate to be tested. Each treatment is composed of two tubes.
(§9) The whole is autoclaved at 110° C. for 15 minutes.
(§10) Each tube is subsequently inoculated with 0.2 ml of inoculum described above. The whole is incubated in an incubator at 37° C., with shaking.
(§11) After 24, 48 or 72 hours of incubation, the aerobic flora and the anaerobic flora are counted according to the methods described above.
(§12) The result of each treatment is the mean of the counts of two test tubes, expressed as log10 of C.F.U. (Colony Forming Units) per ml of artificial saliva.

anaerobic microflora = experiment: Growth of cat oral bacterial microflora in artificial saliva with protein, with or without phosphate: anaerobic count; format: cell-based; conditions: MP9007 1%
Method: as §1, §2, §3, §4, §5
The anaerobic microflora is cultured and then counted on a Schaedler medium (Biokar) supplemented with 5% of sterile defibrinated sheep blood, incubated at 37° C., in a jar under CO2, for 48 hours.
as §6, §7, §8, §9, §10, §11, §12

[1] = Experiment 2, trisodium pyrophosphate 5%
[2] = Experiment 2, trisodium pyrophosphate 10%
[3] = Experiment 2, trisodium phosphate at 5%, from 24 hours of incubation
[4] = Experiment 2, trisodium phosphate incorporated at 10%
[5] = Experiment 3, trisodium pyrophosphate 0.5%

O=P([O-])([O-])OP(=O)([O-])O.[Na+].[Na+].[Na+] [Trisodium pyrophosphate, trisodium pyrophosphate]
Aerobic microflora CFU/ml, 24 hours (aerobic microflora; [1]): 6.88 log10 CFU/ml
Aerobic microflora CFU/ml, 48 hours (aerobic microflora; [1]): 7.56 log10 CFU/ml
Aerobic microflora CFU/ml, 72 hours (aerobic microflora; [1]): 7.69 log10 CFU/ml
Aerobic microflora CFU/ml, 24 hours (aerobic microflora; [2]): <4.00 log10 CFU/ml
Aerobic microflora CFU/ml, 48 hours (aerobic microflora; [2]): 4.88 log10 CFU/ml
Aerobic microflora CFU/ml, 72 hours (aerobic microflora; [2]): <4.00 log10 CFU/ml
Inhibitory effect on the prebiotic effect of MP9007, aerobic microflora (in words) (aerobic microflora; [3]): very substantial
Inhibition of the prebiotic effect of the MP9007 protein, aerobic microflora (in words) (aerobic microflora; [4]): completely inhibited
Aerobic microflora CFU/ml, 24 hours (aerobic microflora; [5]): 7.75 log10 CFU/ml
Anaerobic microflora CFU/ml, 24 hours (anaerobic microflora; [1]): 6.88 log10 CFU/ml
Anaerobic microflora CFU/ml, 48 hours (anaerobic microflora; [1]): 7.46 log10 CFU/ml
Anaerobic microflora CFU/ml, 72 hours (anaerobic microflora; [1]): 6.26 log10 CFU/ml
Anaerobic microflora CFU/ml, 24 hours (anaerobic microflora; [2]): <4.00 log10 CFU/ml
Anaerobic microflora CFU/ml, 48 hours (anaerobic microflora; [2]): <4.00 log10 CFU/ml
Anaerobic microflora CFU/ml, 72 hours (anaerobic microflora; [2]): <4.00 log10 CFU/ml
Inhibitory effect on the prebiotic effect of MP9007, anaerobic microflora (in words) (anaerobic microflora; [3]): very substantial
Inhibition of the prebiotic effect of the MP9007 protein, anaerobic microflora (in words) (anaerobic microflora; [4]): completely inhibited
Anaerobic microflora CFU/ml, 24 hours (anaerobic microflora; [5]): 7.75 log10 CFU/ml
